Source: patent US20240116985A1, “STAPLED PEPTIDES AND METHODS THEREOF” (priority 2020, published 2024)
pIC50: −log10 of the molar value.

Target: T1, full-length beta-Catenin (Uniprot ID P35222) (Homo sapiens, UniProt P35222)
T1 construct: 10 nM full-length beta-Catenin (Uniprot ID P35222)
T1 sequence (P35222 1-781): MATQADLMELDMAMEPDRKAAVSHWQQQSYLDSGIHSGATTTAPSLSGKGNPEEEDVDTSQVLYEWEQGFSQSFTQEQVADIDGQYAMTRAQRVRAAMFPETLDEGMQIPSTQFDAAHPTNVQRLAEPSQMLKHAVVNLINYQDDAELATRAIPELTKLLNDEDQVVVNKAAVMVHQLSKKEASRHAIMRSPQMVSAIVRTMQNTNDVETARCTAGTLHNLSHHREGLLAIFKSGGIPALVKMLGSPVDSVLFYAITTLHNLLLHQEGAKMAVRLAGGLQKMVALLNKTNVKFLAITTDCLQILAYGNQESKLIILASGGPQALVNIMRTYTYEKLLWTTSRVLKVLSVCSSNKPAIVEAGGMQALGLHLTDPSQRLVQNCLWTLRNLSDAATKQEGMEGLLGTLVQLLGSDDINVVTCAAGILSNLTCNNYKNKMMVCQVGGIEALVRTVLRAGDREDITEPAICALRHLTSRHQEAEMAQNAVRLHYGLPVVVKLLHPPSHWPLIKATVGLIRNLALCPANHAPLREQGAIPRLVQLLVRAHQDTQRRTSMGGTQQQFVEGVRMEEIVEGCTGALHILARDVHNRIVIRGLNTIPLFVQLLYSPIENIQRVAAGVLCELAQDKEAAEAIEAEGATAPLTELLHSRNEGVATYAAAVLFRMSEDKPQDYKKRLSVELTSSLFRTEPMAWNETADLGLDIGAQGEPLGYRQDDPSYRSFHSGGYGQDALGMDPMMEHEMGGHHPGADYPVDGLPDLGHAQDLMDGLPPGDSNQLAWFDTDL
Assay: Fluorescence polarization IC50 (beta-catenin / 5FAM-TCF4 10-53 competition)
Format: binding
Settings: fluorescence polarization; read-out: beta-Catenin FP IC50

pIC50 | Compound
5.92 | CC(=O)N1CCC[C@]12CC=CCCCC1(CCCC=CCCCOC(=O)N3CC[C@](C(=O)N[C@@H](Cc4ccsc4)C(=O)N[C@@H](Cc4csc5ccccc45)C(=O)N[C@@H](CCC(N)=O)C(N)=O)(C3)NC(=O)[C@H](CC(C)C)NC(=O)[C@H](Cc3ccccc3)NC(=O)[C@H](C)NC(=O)[C@H](C)NC(=O)[C@H](CC(=O)O)NC(=O)[C@H](CC(=O)O)NC1=O)NC(=O)[C@H](CC(C)(C)C)NC(=O)[C@H](CC(=O)O)NC2=O (stereo partly drawn) [I-2020, Ac-PL3-Asp-Npg-B5-Asp-Asp-Ala-Ala-Phe-Leu-PyrR2-3Thi-BztA-Gln-NH2]
5.27 | CC(=O)N1CCC[C@]12CCCCCCC1(CCCCCCCCOC(=O)N3CC[C@](C(=O)N[C@@H](Cc4ccsc4)C(=O)N[C@@H](Cc4csc5ccccc45)C(=O)N[C@@H](CCC(N)=O)C(N)=O)(C3)NC(=O)[C@H](CC(N)=O)NC(=O)[C@H](Cc3ccccc3)NC(=O)[C@H](C)NC(=O)[C@H](C)NC(=O)[C@H](CC(=O)O)NC(=O)[C@H](CC(=O)O)NC1=O)NC(=O)[C@H](CC(C)(C)C)NC(=O)[C@H](CC(=O)O)NC2=O (stereo partly drawn) [I-2021, Ac-PL3-Asp-Npg-B5-Asp-Asp-Ala-Ala-Phe-Asn-PyrR2-3Thi-BztA-Gln-NH2]
5.72 | CC(=O)N1CCC[C@]12CCCCCCC1(CCCCCCCCOC(=O)N3CC[C@](C(=O)N[C@@H](Cc4ccsc4)C(=O)N[C@@H](Cc4csc5ccccc45)C(=O)N[C@@H](CCC(N)=O)C(N)=O)(C3)NC(=O)[C@H](CC(C)C)NC(=O)[C@H](Cc3ccccc3)NC(=O)[C@H](C)NC(=O)[C@H](C)NC(=O)[C@H](CC(=O)O)NC(=O)[C@H](CC(=O)O)NC1=O)NC(=O)[C@H](CC(C)(C)C)NC(=O)[C@H](CC(=O)O)NC2=O (stereo partly drawn) [I-2022, Ac-PL3-Asp-Npg-B5-Asp-Asp-Ala-Ala-Phe-Leu-PyrR2-3Thi-BztA-Gln-NH2]
6.96 | CC(=O)N1CCC[C@]12CC=CCCCC1(CCCC=CCCCOC(=O)N3CC[C@@](C(=O)N[C@@H](Cc4ccccc4Cl)C(=O)N[C@@H](Cc4csc5ccccc45)C(=O)N[C@@H](Cc4ccccc4)C(N)=O)(C3)NC(=O)[C@H](C)NC(=O)[C@H](Cc3ccccc3)NC(=O)[C@H](C)NC(=O)[C@H](C)NC(=O)[C@H](Cc3cccc(C(=O)O)c3)NC(=O)[C@H](CC(=O)O)NC1=O)NC(=O)[C@H](CC(C)(C)C)NC(=O)[C@H](CC(=O)O)NC2=O (stereo partly drawn) [I-2025, Ac-PL3-Asp-Npg-B5-Asp-3COOHF-Ala-Ala-Phe-Ala-PyrS2-2C1F-BztA-Phe-NH2]
7.74 | CC(=O)N1CCC[C@]12CC=CCCCC1(CCCC=CCCCOC(=O)N3CC[C@@](C(=O)N[C@@H](Cc4ccccc4Cl)C(=O)N[C@@H](Cc4csc5ccccc45)C(=O)N[C@H](C)C(N)=O)(C3)NC(=O)[C@H](CC(N)=O)NC(=O)[C@H](Cc3ccccc3)NC(=O)[C@H](C)NC(=O)[C@H](C)NC(=O)[C@H](Cc3cccc(C(=O)O)c3)NC(=O)[C@H](CC(=O)O)NC1=O)NC(=O)[C@H](CC(C)(C)C)NC(=O)[C@H](CC(=O)O)NC2=O (stereo partly drawn) [I-2034, Ac-PL3-Asp-Npg-B5-Asp-3COOHF-Ala-Ala-Phe-Asn-PyrS2-2C1F-BztA-dAla-NH2]
8.30 | CC(=O)N1CCC[C@]12CC=CCCCC1(CCCC=CCCCOC(=O)N3CC[C@@](C(=O)N[C@@H](Cc4ccsc4)C(=O)N[C@@H](Cc4csc5ccccc45)C(=O)N[C@@H](C)C(N)=O)(C3)NC(=O)[C@H](C(C)C)NC(=O)[C@H](Cc3ccccc3)NC(=O)[C@H](C)NC(=O)[C@H](CCC(N)=O)NC(=O)[C@H](Cc3cccc(C(=O)O)c3)NC(=O)[C@H](CC(=O)O)NC1=O)NC(=O)[C@H](CC(C)(C)C)NC(=O)[C@H](CC(=O)O)NC2=O (stereo partly drawn) [I-2054, Ac-PL3-Asp-Npg-B5-Asp-3COOHF-Gln-Ala-Phe-Val-PyrS2-3Thi-BztA-Ala-NH2]
6.45 | CC(=O)N1CCC[C@]12CC=CCCCC1(CCCC=CCCCOC(=O)N3CC[C@@](C(=O)N[C@@H](Cc4ccccc4)C(=O)N[C@@H](Cc4csc5ccccc45)C(=O)N[C@@H](CCO)C(N)=O)(C3)NC(=O)[C@H](CC(N)=O)NC(=O)[C@H](Cc3ccccc3)NC(=O)[C@H](C)NC(=O)[C@H](Cc3c[nH]cn3)NC(=O)[C@H](CCC(N)=O)NC(=O)[C@H](CC(=O)O)NC1=O)NC(=O)[C@H](CC1CCCCC1)NC(=O)[C@H](CC(N)=O)NC2=O (stereo partly drawn) [I-2066, Ac-PL3-Asn-Cha-B5-Asp-Gln-His-Ala-Phe-Asn-PyrS2-Phe-BztA-Hse-NH2]
6.23 | CC(=O)N1CCC[C@]12CC=CCCCC1(CCCC=CCCCOC(=O)N3CC[C@@](C(=O)N[C@@H](Cc4cscn4)C(=O)N[C@@H](Cc4csc5ccccc45)C(=O)N[C@@H](CCO)C(N)=O)(C3)NC(=O)[C@H](CC(N)=O)NC(=O)[C@H](Cc3ccccc3)NC(=O)[C@H](C)NC(=O)[C@H](CCCCNC(C)C)NC(=O)[C@H](CCC(N)=O)NC(=O)[C@H](CC(=O)O)NC1=O)NC(=O)[C@H](CC1CCCCC1)NC(=O)[C@H](CC(N)=O)NC2=O (stereo partly drawn) [I-2071, Ac-PL3-Asn-Cha-B5-Asp-Gln-iPrLys-Ala-Phe-Asn-PyrS2-4Thz-BztA-Hse-NH2]
5.08 | CC(=O)N1CCC[C@]12CC=CCCCC1(CCCC=CCCCOC(=O)N3CC[C@@](C(=O)N[C@@H](Cc4ccccc4)C(=O)N[C@@H](Cc4csc5ccccc45)C(=O)N[C@@H](CCO)C(N)=O)(C3)NC(=O)[C@H](CC(N)=O)NC(=O)[C@H](Cc3cscn3)NC(=O)[C@H](C)NC(=O)[C@H](CCCCNC(C)C)NC(=O)[C@H](CCC(N)=O)NC(=O)[C@H](CC(=O)O)NC1=O)NC(=O)[C@H](CC1CCCCC1)NC(=O)[C@H](CC(N)=O)NC2=O (stereo partly drawn) [I-2072, Ac-PL3-Asn-Cha-B5-Asp-Gln-iPrLys-Ala-4Thz-Asn-PyrS2-Phe-BztA-Hse-NH2]
6.40 | CC(=O)N1CCC[C@]12CC=CCCCC1(CCCC=CCCCOC(=O)N3CC[C@@](C(=O)N[C@@H](Cc4ccccc4)C(=O)N[C@@H](Cc4csc5ccccc45)C(N)=O)(C3)NC(=O)[C@H](CC(N)=O)NC(=O)[C@H](Cc3ccccc3)NC(=O)[C@H](C)NC(=O)[C@H](CCCCNC(C)C)NC(=O)[C@H](CCC(N)=O)NC(=O)[C@H](CC(=O)O)NC1=O)NC(=O)[C@H](CC1CCCCC1)NC(=O)[C@H](CC(N)=O)NC2=O (stereo partly drawn) [I-2073, Ac-PL3-Asn-Cha-B5-Asp-Gln-iPrLys-Ala-Phe-Asn-PyrS2-Phe-BztA-NH2]
6.10 | CC(=O)N1CCC[C@]12CC=CCCCC1(CCCC=CCCCOC(=O)N3CC[C@@](C(=O)N[C@@H](Cc4ccsc4)C(=O)N[C@@H](Cc4csc5ccccc45)C(=O)N[C@@H](CCO)C(N)=O)(C3)NC(=O)[C@H](CC(N)=O)NC(=O)[C@H](Cc3ccccc3)NC(=O)[C@H](C)NC(=O)[C@H](CCCCNC(C)C)NC(=O)[C@H](CCC(N)=O)NC(=O)[C@H](CC(=O)O)NC1=O)NC(=O)[C@H](CC1CCCCC1)NC(=O)[C@H](CC(N)=O)NC2=O (stereo partly drawn) [I-2074, Ac-PL3-Asn-Cha-B5-Asp-Gln-iPrLys-Ala-Phe-Asn-PyrS2-3Thi-BztA-Hse-NH2]
5.63 | CC(=O)N1CCC[C@]12CC=CCCCC1(CCCC=CCCCOC(=O)N3CC[C@@](C(=O)N[C@@H](Cc4cccs4)C(=O)N[C@@H](Cc4csc5ccccc45)C(=O)N[C@@H](CCO)C(N)=O)(C3)NC(=O)[C@H](CC(N)=O)NC(=O)[C@H](Cc3ccccc3)NC(=O)[C@H](C)NC(=O)[C@H](CCCCNC(C)C)NC(=O)[C@H](CCC(N)=O)NC(=O)[C@H](CC(=O)O)NC1=O)NC(=O)[C@H](CC1CCCCC1)NC(=O)[C@H](CC(N)=O)NC2=O (stereo partly drawn) [I-2075, Ac-PL3-Asn-Cha-B5-Asp-Gln-iPrLys-Ala-Phe-Asn-PyrS2-2Thi-BztA-Hse-NH2]
6.49 | CC(=O)N1CCC[C@]12CC=CCCCC1(CCCC=CCCCOC(=O)N3CC[C@@](C(=O)N[C@@H](Cc4ccccc4C(F)(F)F)C(=O)N[C@@H](Cc4csc5ccccc45)C(=O)N[C@@H](C)C(N)=O)(C3)NC(=O)[C@H](CC(C)C)NC(=O)[C@H](Cc3ccccc3)NC(=O)[C@@H](C)NC(=O)[C@H](C)NC(=O)[C@H](Cc3cccc(C(=O)O)c3)NC(=O)[C@H](CC(=O)O)NC1=O)NC(=O)[C@H](CC(C)(C)C)NC(=O)[C@H](CC(=O)O)NC2=O (stereo partly drawn) [I-2099, Ac-PL3-Asp-Npg-B5-Asp-3COOHF-Ala-dAla-Phe-Leu-PyrS2-2F3MeF-BztA-Ala-NH2]
6.37 | CC(=O)N1CCC[C@]12CC=CCCCC1(CCCC=CCCCOC(=O)N3CC[C@@](C(=O)N[C@@H](Cc4ccccc4C(F)(F)F)C(=O)N[C@@H](Cc4csc5ccccc45)C(=O)N[C@H](C)C(N)=O)(C3)NC(=O)[C@H](CC(C)C)NC(=O)[C@H](Cc3ccccc3)NC(=O)[C@@H](C)NC(=O)[C@H](C)NC(=O)[C@H](Cc3cccc(C(=O)O)c3)NC(=O)[C@H](CC(=O)O)NC1=O)NC(=O)[C@H](CC(C)(C)C)NC(=O)[C@H](CC(=O)O)NC2=O (stereo partly drawn) [I-2101, Ac-PL3-Asp-Npg-B5-Asp-3COOHF-Ala-dAla-Phe-Leu-PyrS2-2F3MeF-BztA-dAla-NH2]
6.30 | CC(=O)N1CCC[C@]12CC=CCCCC1(CCCC=CCCCOC(=O)N3CC[C@@](C(=O)N[C@@H](Cc4ccccc4)C(=O)N[C@@H](Cc4csc5ccccc45)C(=O)N[C@H](C(N)=O)[C@@H](C)O)(C3)NC(=O)[C@H](CC(N)=O)NC(=O)[C@H](Cc3ccccc3)NC(=O)[C@H](C)NC(=O)[C@H](CCCCNC(C)C)NC(=O)[C@H](CCC(N)=O)NC(=O)[C@H](CC(=O)O)NC1=O)NC(=O)[C@H](CC1CCCCC1)NC(=O)[C@H](CC(N)=O)NC2=O (stereo partly drawn) [I-2112, Ac-PL3-Asn-Cha-B5-Asp-Gln-iPrLys-Ala-Phe-Asn-PyrS2-Phe-BztA-Thr-NH2]
